The values below come from publication PMC8848508 (ACS Central Science, 2022).

Entries after “also recorded” stand apart in the source; their conditions may differ. Where a SMILES comes first, the peptide text is derived from it. The star is where a group is joined. Cbz = O=C(OCc1ccccc1)*

The target in this test is SARS-CoV-2 M^Pro (Severe acute respiratory syndrome coronavirus 2, UniProt P0DTD1, Q3569G). Format: cell-based.
Turning to `CC(C)(C)NC(=O)N[C@H](C(=O)N1C[C@H]2[C@@H]([C@H]1C(=O)NC(CC1CCC1)C(=O)C(N)=O)C2(C)C)C(C)(C)C` (stereo partly drawn) [boceprevir], the “cellular inhibition of M^Pro (in words)” value is “close to undetectable; also recorded: very weak”.
Take `CC(C)C[C@@H](C=O)NC(=O)[C@H](CC(C)C)NC(=O)[C@H](CC(C)C)NC(=O)OCc1ccccc1` [MG-132] (Cbz-Leu-Leu-Leu-aldehyde): the “cellular inhibition of M^Pro (in words)” value is “close to undetectable”.
Regarding `CCN(CCO)CCCC(C)Nc1ccnc2cc(Cl)ccc12` (stereo not drawn) [hydroxychloroquine], the “cellular inhibition of M^Pro (in words)” value was “relatively weak to undetectable; also recorded: close to undetectable”.
As to `O=c1c2ccccc2[se]n1-c1ccccc1` [ebselen], the “cellular inhibition of M^Pro (in words)” value is listed as “relatively weak to undetectable”.
`CC(C)COCC(CN(Cc1ccccc1)c1ccccc1)N1CCCC1` (stereo not drawn) [bepridil]: the “cellular inhibition of M^Pro (in words)” value is “relatively weak to undetectable; also recorded: very weak inhibition; also recorded: close to undetectable”.
Consider `CCCCCCNC(=O)n1cc(F)c(=O)[nH]c1=O` [carmofur], for which the “cellular inhibition of M^Pro (in words)” value was “undetectable”.
Regarding `CCC[C@H](NC(=O)[C@@H]1[C@H]2CCC[C@H]2CN1C(=O)[C@@H](NC(=O)[C@@H](NC(=O)c1cnccn1)C1CCCCC1)C(C)(C)C)C(=O)C(=O)NC1CC1` [telaprevir], the “cellular inhibition of M^Pro (in words)” value was “close to undetectable”.
Under `CCN(CC)CCCC(C)Nc1ccnc2cc(Cl)ccc12` (stereo not drawn) [chloroquine] stands “relatively weak to undetectable; also recorded: close to undetectable”; under `CCCC[C@@H](C=O)NC(=O)[C@H](CC(C)C)NC(=O)OCc1ccccc1` [calpeptin], “close to undetectable”.
